Molecular target: T1, human PAH with the R408W mutation (Homo sapiens, UniProt P00439, R408W)
T1 construct: expressed in transfected cells
T1 sequence (P00439 1-452 R408W): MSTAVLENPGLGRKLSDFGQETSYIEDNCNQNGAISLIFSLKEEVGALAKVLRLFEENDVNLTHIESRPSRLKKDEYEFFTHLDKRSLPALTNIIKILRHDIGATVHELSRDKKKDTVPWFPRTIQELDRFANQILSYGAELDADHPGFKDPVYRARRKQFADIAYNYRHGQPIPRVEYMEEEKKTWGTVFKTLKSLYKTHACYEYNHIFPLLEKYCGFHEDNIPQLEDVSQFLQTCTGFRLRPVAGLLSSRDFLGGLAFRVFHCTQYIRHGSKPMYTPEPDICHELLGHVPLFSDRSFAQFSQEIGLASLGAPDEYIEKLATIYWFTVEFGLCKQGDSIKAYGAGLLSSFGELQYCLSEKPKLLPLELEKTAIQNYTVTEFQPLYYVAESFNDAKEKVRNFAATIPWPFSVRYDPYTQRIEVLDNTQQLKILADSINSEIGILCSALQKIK
Assay: Cell Based Phenylalanine Flux Assay;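 further: after compound treatment, cells received sepiapterin plus isotope-labelled Phenylalanine for 4 hours, then labelled Tyrosine in the medium was quantified, 10-point 2-fold dilution series run in duplicate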
Details: A375 cells expressing R408W PAH; 24 hrs with compound, then 20 µM sepiapterin and 800 µM 13C9,15N-Phenylalanine for 4 hours; 13C-Tyrosine by LC-MS; average where tested multiple times; read-out: AC50

SMILES	AC50 [µM]
Cc1ccn2nc(C3c4nc[nH]c4CCN3C(=O)c3nnc(C(C)(C)C)o3)cc2c1 (stereo not drawn)	1 to 5
Cc1nnc(C(=O)N2CCc3[nH]cnc3C2c2cc3cc(F)ccn3n2)o1 (stereo not drawn)	1 to 5
O=C(c1nnc(C2CC(F)(F)C2)o1)N1CCc2[nH]cnc2C1c1cc2cccc(C(F)F)n2n1 (stereo not drawn)	1 to 5
CC(C)c1cccn2nc(C3c4nc[nH]c4CCN3c3nnc(C(C)(C)F)o3)cc12 (stereo not drawn)	1 to 5
c1cncc(-c2nnc(N3CCc4[nH]cnc4C3c3cc4c(C5CC5)cccn4n3)o2)c1 (stereo not drawn)	> 5

Same assay, conditions: A375 cells expressing human PAH R408W; 24 hrs compound incubation; 13C-Tyrosine by LC-MS; average where tested multiple times; read-out: AC50

SMILES	AC50 [µM]
FC(F)(F)c1ccc(N2CCc3[nH]cnc3[C@@H]2c2cc3ccccn3n2)nc1 [Example 1915, (R)-4-(pyrazolo[1,5-a]pyridin-2-yl)-5-(5-(trifluoromethyl)pyridin-2-yl)-4,5,6,7-tetrahydro-1H-imidazo[4,5-c]pyridine]	> 5
CC(C)(F)c1nnc(C(=O)N2CCc3[nH]cnc3[C@H]2c2cc3c(C4CC4)cccn3n2)o1 [Example 2061, (S)-(4-(4-cyclopropylpyrazolo[1,5-a]pyridin-2-yl)-1,4,6,7-tetrahydro-5H-imidazo[4,5-c]pyridin-5-yl)(5-(2-fluoropropan-2-yl)-1,3,4-oxadiazol-2-yl)methanone]	0.5 to 1
Fc1cccc(F)c1-c1nnc(N2CCc3[nH]cnc3[C@H]2c2cc3c(Cl)cccn3n2)o1 [Example 2063, (S)-2-(4-(4-chloropyrazolo[1,5-a]pyridin-2-yl)-1,4,6,7-tetrahydro-5H-imidazo[4,5-c]pyridin-5-yl)-5-(2,6-difluorophenyl)-1,3,4-oxadiazole]	< 0.5
Cc1cccn2nc([C@H]3c4nc[nH]c4CCN3c3nnc(C4CCC4)o3)cc12 [Example 2480, (R)-2-cyclobutyl-5-(4-(4-methylpyrazolo[1,5-a]pyridin-2-yl)-6,7-dihydro-1H-imidazo[4,5-c]pyridin-5(4H)-yl)-1,3,4-oxadiazole]	> 5
O=C(c1cnc(-c2ccccn2)o1)N1CCc2[nH]cnc2[C@@H]1c1cc2c(C(F)(F)F)cccn2n1 [Example 2037, (R)-(2-(pyridin-2-yl)oxazol-5-yl)(4-(4-(trifluoromethyl)pyrazolo[1,5-a]pyridin-2-yl)-1,4,6,7-tetrahydro-5H-imidazo[4,5-c]pyridin-5-yl)methanone]	> 5
Cc1nnc(C(=O)N2CCc3[nH]cnc3[C@H]2c2cc3c(C(C)C)cccn3n2)o1 [Example 1858, (S)-(4-(4-isopropylpyrazolo[1,5-a]pyridin-2-yl)-1,4,6,7-tetrahydro-5H-imidazo[4,5-c]pyridin-5-yl)(5-methyl-1,3,4-oxadiazol-2-yl)methanone]	< 0.5
Cc1cccn2nc([C@@H]3c4nc[nH]c4CCN3C(=O)c3cnc(-c4cnn(C)c4C)o3)cc12 [Example 1962, (S)-(2-(1,5-dimethyl-1H-pyrazol-4-yl)oxazol-5-yl)(4-(4-methylpyrazolo[1,5-a]pyridin-2-yl)-1,4,6,7-tetrahydro-5H-imidazo[4,5-c]pyridin-5-yl)methanone]	0.5 to 1
FC(F)(F)Oc1cccn2nc([C@@H]3c4nc[nH]c4CCN3c3ncc(C(F)(F)F)cn3)cc12 [Example 2316, (S)-4-(4-(trifluoromethoxy)pyrazolo[1,5-a]pyridin-2-yl)-5-(5-(trifluoromethyl)pyrimidin-2-yl)-4,5,6,7-tetrahydro-1H-imidazo[4,5-c]pyridine]	< 0.5
Cc1cccn2nc([C@@H]3c4nc[nH]c4CCN3C(=O)c3oc(-c4cnn(C)c4)nc3C3CC3)cc12 [Example 2074]	< 0.5
CC(C)(C)c1ncc(C(=O)N2CCc3[nH]cnc3[C@H]2c2cc3c(C(F)(F)F)cccn3n2)o1 [Example 2142, (S)-(2-(tert-butyl)oxazol-5-yl)(4-(4-(trifluoromethyl)pyrazolo[1,5-a]pyridin-2-yl)-1,4,6,7-tetrahydro-5H-imidazo[4,5-c]pyridin-5-yl)methanone]	< 0.5
Fc1cccc(F)c1-c1nnc(N2CCc3[nH]cnc3[C@H]2c2cc3cccc(C(F)F)n3n2)o1 [Example 2093, (S)-2-(4-(7-(difluoromethyl)pyrazolo[1,5-a]pyridin-2-yl)-1,4,6,7-tetrahydro-5H-imidazo[4,5-c]pyridin-5-yl)-5-(2,6-difluorophenyl)-1,3,4-oxadiazole]	< 0.5

Same assay, conditions: A375 cells expressing human R408W PAH; 24 hrs compound incubation; 13C-Tyrosine by LC-MS; average where tested multiple times; read-out: AC50

SMILES	AC50 [µM]
O=C(c1nnc(-c2cc(C(F)(F)F)ccn2)o1)N1CCc2[nH]cnc2[C@@H]1c1cc2ccccn2n1 [Example 668, (R)-(4-(pyrazolo[1,5-a]pyridin-2-yl)-6,7-dihydro-1H-imidazo[4,5-c]pyridin-5(4H)-yl)(5-(4-(trifluoromethyl)pyridin-2-yl)-1,3,4-oxadiazol-2-yl)methanone]	> 5
Cc1nc(C(C)(C)C#N)oc1C(=O)N1CCc2[nH]cnc2[C@H]1c1cc2ccccn2n1 [Example 992, (S)-2-methyl-2-(4-methyl-5-(4-(pyrazolo[1,5-a]pyridin-2-yl)-4,5,6,7-tetrahydro-1H-imidazo[4,5-c]pyridine-5-carbonyl)oxazol-2-yl)propanenitrile]	0.5 to 1
COc1ccc2c(C(=O)N3CCc4[nH]cnc4[C@H]3c3cc4c(Cl)cccn4n3)cnn2c1 [Example 1698, (S)-(4-(4-chloropyrazolo[1,5-a]pyridin-2-yl)-6,7-dihydro-1H-imidazo[4,5-c]pyridin-5(4H)-yl)(6-methoxypyrazolo[1,5-a]pyridin-3-yl)methanone]	< 0.5
CC1(c2nnc(C(=O)N3CCc4[nH]cnc4[C@@H]3c3cc4c(F)cccn4n3)o2)CC1 [Example 1379, (R)-(4-(4-fluoropyrazolo[1,5-a]pyridin-2-yl)-6,7-dihydro-1H-imidazo[4,5-c]pyridin-5(4H)-yl)(5-(1-methylcyclopropyl)-1,3,4-oxadiazol-2-yl)methanone]	> 5
N#Cc1ncoc1C(=O)N1CCc2[nH]cnc2[C@@H]1c1cc2c(Cl)cccn2n1 [Example 687, (R)-5-(4-(4-chloropyrazolo[1,5-a]pyridin-2-yl)-4,5,6,7-tetrahydro-1H-imidazo[4,5-c]pyridine-5-carbonyl)oxazole-4-carbonitrile]	1 to 5
COc1ccc(-c2nnc(C(=O)N3CCc4[nH]cnc4[C@@H]3c3cc4cccc(C(F)F)n4n3)o2)nc1 [Example 1579, (R)-(4-(7-(difluoromethyl)pyrazolo[1,5-a]pyridin-2-yl)-6,7-dihydro-1H-imidazo[4,5-c]pyridin-5(4H)-yl)(5-(5-methoxypyridin-2-yl)-1,3,4-oxadiazol-2-yl)methanone]	> 5
CCOc1cccc2cc([C@H]3c4nc[nH]c4CCN3C(=O)c3nnc(C(C)(C)F)o3)nn12 [Example 1243, (R)-(4-(7-ethoxypyrazolo[1,5-a]pyridin-2-yl)-6,7-dihydro-1H-imidazo[4,5-c]pyridin-5(4H)-yl)(5-(2-fluoropropan-2-yl)-1,3,4-oxadiazol-2-yl)methanone]	1 to 5
Cc1cc(-c2nnc(C(=O)N3CCc4[nH]cnc4[C@H]3c3cc4cccc(C(F)F)n4n3)o2)nn1C [Example 1537, (S)-(4-(7-(difluoromethyl)pyrazolo[1,5-a]pyridin-2-yl)-6,7-dihydro-1H-imidazo[4,5-c]pyridin-5(4H)-yl)(5-(1,5-dimethyl-1H-pyrazol-3-yl)-1,3,4-oxadiazol-2-yl)methanone]	0.5 to 1
COCCc1ccc2c(C(=O)N3CCc4[nH]cnc4[C@H]3c3cc4c(F)cccn4n3)cnn2c1 [Example 1796, (S)-(4-(4-fluoropyrazolo[1,5-a]pyridin-2-yl)-6,7-dihydro-1H-imidazo[4,5-c]pyridin-5(4H)-yl)(6-(2-methoxyethyl)pyrazolo[1,5-a]pyridin-3-yl)methanone]	0.5 to 1
O=C(c1ocnc1C(F)F)N1CCc2[nH]cnc2[C@@H]1c1cc2ccc(C(F)(F)F)cn2n1 [Example 1105, (R)-(4-(difluoromethyl)oxazol-5-yl)(4-(6-(trifluoromethyl)pyrazolo[1,5-a]pyridin-2-yl)-6,7-dihydro-1H-imidazo[4,5-c]pyridin-5(4H)-yl)methanone]	1 to 5
O=C(c1nnc(-c2cnn(C(F)F)c2)o1)N1CCc2[nH]cnc2[C@H]1c1cc2ccccn2n1 [Example 650, (S)-(5-(1-(difluoromethyl)-1H-pyrazol-4-yl)-1,3,4-oxadiazol-2-yl)(4-(pyrazolo[1,5-a]pyridin-2-yl)-6,7-dihydro-1H-imidazo[4,5-c]pyridin-5(4H)-yl)methanone]	1 to 5
O=C(c1ocnc1C(F)(F)F)N1CCc2[nH]cnc2[C@H]1c1cc2ccccn2n1 [Example 610, (S)-(4-(pyrazolo[1,5-a]pyridin-2-yl)-6,7-dihydro-1H-imidazo[4,5-c]pyridin-5(4H)-yl)(4-(trifluoromethyl)oxazol-5-yl)methanone]	< 0.5
Cc1ccc(-c2nnc(C(=O)N3CCc4[nH]cnc4[C@H]3c3cc4c(F)cccn4n3)o2)nc1 [Example 877, (S)-(4-(4-fluoropyrazolo[1,5-a]pyridin-2-yl)-6,7-dihydro-1H-imidazo[4,5-c]pyridin-5(4H)-yl)(5-(5-methylpyridin-2-yl)-1,3,4-oxadiazol-2-yl)methanone]	< 0.5
Cc1ccc2cc([C@H]3c4nc[nH]c4CCN3C(=O)c3oc(C(C)(C)O)nc3C(F)F)nn2c1 [Example 805]	1 to 5

Reference: patent US20230365592A1 (Agios Pharmaceuticals, Inc., priority 2022, published 2023)
